Laboratory results published in US20260364134A1, “AGENT FOR SUPPRESSING AMYLOID BETA AGGREGATION/DEPOSITION AND AGENT FOR SUPPRESSING COGNITIVE FUNCTION DECLINE/IMPROVING COGNITIVE FUNCTION IN A SUBJECT” (KANEKA CORPORATION, priority 2023, published 2026).

Key:
[1] = target: amyloid β (Aβ) in cerebral organoids (Homo sapiens, UniProt P05067); assay: Aβ aggregation/deposition suppression in cerebral organoids (QD-Aβ40/Aβ42, fluorescence microscopy); type: cell-based; conditions: Example 3, 24 hours after addition
Method: The end of a 1000-μl tip was cut off with sterilized scissors, and the organoids produced in Example 1 that had grown to a diameter of 1 mm or more were aspirated without disrupting them, and transferred to a U-bottom 96-well plate. […]
The next day, all of the culture supernatant was removed without aspirating the organoid, and 150 μl of fresh NbM medium was added. The cultured organoids were then observed and photographed under a fluorescence microscope.
Using a fluorescence microscope (BZ-X800 manufactured by KEYENCE CORPORATION), the cultured organoids in Example 2 were photographed in a bright field at a high resolution with an exposure time of 1/500 s to 1/2000 s, or at a high sensitivity with an exposure time of 1/2000 s to 1/5000 s, with Z stacks with a pitch of 20 μm. […] Subsequently, to observe the deposition of quantum dot-modified amyloid β in the cultured organoid, red fluorescence was observed using a TRITC lens at a high sensitivity with an exposure time of ¼ s to 1/8.5 s, and images were obtained according to the procedure described above.
Each of the images obtained above was analyzed as follows. […] The threshold of the loaded bright-field image was set to 200, and the organoid area (organoid surface area) was calculated. […]
The black balance level of image processing was adjusted for the fluorescent images of various tests. First, the negative control image was read out. […]

Aβ = conditions: cited from earlier work

Chain of amyloid β (Aβ) in cerebral organoids (P05067 672-713): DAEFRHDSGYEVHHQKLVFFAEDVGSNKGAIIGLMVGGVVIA

Aβ aggregation/deposition suppression rate in cerebral organoids ([1]; rosmarinic acid final 50 μM, QD-Aβ40 30 nM, Aβ42 10 μM): 3.9%
SMILES: O=C(/C=C/c1ccc(O)c(O)c1)O[C@H](Cc1ccc(O)c(O)c1)C(=O)O [rosmarinic acid, Rosmarinic acid]
Effect of suppressing Aβ aggregation/deposition in cerebral organoids (in words) [1]: not a drug that has an effect of suppressing Aβ aggregation/deposition in cerebral organoids
effect of suppressing Aβ aggregation (known) (Aβ): known to have an effect of suppressing Aβ aggregation
